The text below walks through data of patent publication US4731109A, “Herbicidal 2-haloacetanilides” (Monsanto Company, priority 1982, dated 1988).

Where two headings read alike, the source gives them in different places.

Data set [1] deals with Texas panicum. The data set is described as follows: Field preemergence activity in peanuts, surface applied. The class given is in vivo. The conditions noted are these: pre-emergence, read-out: Percent Inhibition; for inhibition at 2240 g/ha: 2.24 Kg/Ha; for inhibition at 3360 g/ha: 3.36 Kg/Ha; for inhibition at 4480 g/ha: 4.48 Kg/Ha. The text has this:
It will be understood by those skilled in the art that not all of the named weeds are selectively controlled in all of the named crops under all conditions of climate, soil, moisture and/or herbicide application modes. Selectivity data for control of the foregoing weeds in the crops soybeans, corn, cotton and peanuts from a plurality of field tests in various locations under various conditions of soil, moisture, etc., is shown collectively in Tables VIII-XI, respectively.
In Table XI is presented preemergence activity data for the compound of Example 1 against three resistant annual weeds, i.e., Texas panicum, bristly starbur and Florida pusley in peanuts for periods up to 12 WAT. The data in Table XI represent the average of three replicate runs in sandy loam soil having 1.3% organic matter, 79.2% sand and 10% clay; herbicide surface applied.

A short description of data set [2]: Toxicology studies, skin irritation. To be noted: in vivo. From the text:
(§1) Toxicology studies on the compound of Example 1 have indicated the compound to be quite safe. […] No special handling procedures beyond normal precautions are deemed necessary.

Data set [3] can be described thus: Toxicology studies, LD50. To be noted: in vivo.
Source text: as §1

Data set [4] in a line: Toxicology studies, eye irritation. To be noted: in vivo.
Source text: as §1

Take `CCOCN(C(=O)CCl)c1c(C)cccc1C(F)(F)F` [Example 1, N-(ethoxymethyl)-2'-trifluoromethyl-6'-methyl-2-chloroacetanilide]: the values for the inhibition at 2240 g/ha in data set [1] (4 WAT), in data set [1] (8 WAT) and in data set [1] (12 WAT) were 50%, 67% and 40%, respectively. The inhibition at 3360 g/ha in data set [1] (4 WAT) was 68%; in data set [1] (8 WAT), 63%; in data set [1] (12 WAT), 55%. In addition, the figures for the inhibition at 4480 g/ha in data set [1] (4 WAT), in data set [1] (8 WAT) and in data set [1] (12 WAT) were 85%, 88% and 78%, respectively. The skin irritation result in data set [2] was “no skin irritation”. The toxicity result in data set [3] is given as “slightly toxic”. For the same molecule, the LD50 is 2300 mg/kg in data set [3] (po, read-out: OLD50) and over 5010 mg/kg in data set [3] (read-out: MLD50). Also, the eye irritation result in data set [4] is listed as “slight eye irritation”.

The inhibition is how much of the control response was suppressed.
